Measured values reported in US20250129031A1, “1,2,3-TRIAZOLE CARBONYL SULFONYLAMIDE COMPOUNDS AND USE THEREOF” (PI INDUSTRIES LTD., priority 2022, published 2025).

Test system: Meloidogyne incognita
Assay: Meloidogyne incognita test: gall rating on cucumber plants in pots after soil application
Assay type: in vivo
Set-up: key: 0: no galls; 1: very few small galls; 2: numerous small galls; 3: numerous small galls of which some are grown together; 4: numerous small and some big galls; 25% of roots severely galled; 6: 50% of roots severely galled; 75% of roots severely galled; 8: no healthy roots but plant is still green; 9: roots rotting and plant dying; 10: plant and roots dead
Settings: 1000 ppm applied to soil inoculated with 5000 eggs & J2s; cucumber seedlings; rated 30 days after application; 0-10 scale (Zeck 1971); untreated check up to 8
Description: Meloidogyne incognita Test:
The trial pots were filled with soil containing a mixture of sand:soil:cocopeat in a ratio of 1:1:1. To the soil of each pot 5 mL of a nematode suspension (Meloidogyne incognita, mix of 5000 eggs & J2s) was added. One hour later the respective test compound at the stated concentration was applied to each pot. 10 days old cucumber seedlings were transplanted into the pots one day after the application. The cucumber plants were allowed to grow at a temperature of 27° C. under greenhouse conditions. The evaluation of the gall rating was recorded 30 days after the application. The plants were carefully uprooted and the roots were thoroughly washed. The gall rating was done on a 0-10 scale as described by Zeck (1971) and shown below: • 0=no galls • 1=very few small galls • 2=numerous small galls • 3=numerous small galls of which some are grown together • 4=numerous small and some big galls • 5=25% of roots severely galled • 6=50% of roots severely galled • 7=75% of roots severely galled • 8=no healthy roots but plant is still green • 9=roots rotting and plant dying • 10=plant and roots dead

| Compound | gall rating scale |
| --- | --- |
| Cc1cc(S(=O)(=O)NC(=O)c2nnn(-c3ccc(Cl)cc3Cl)c2C)c(C)cc1Cl [Compound 280, N-((4-chloro-2,5-dimethylphenyl)sulfonyl)-1-(2,4-dichlorophenyl)-5-methyl-1H-1,2,3-triazole-4-carboxamide] | 4 |
| Cc1c(C(=O)NS(=O)(=O)c2c(F)cc(F)cc2F)nnn1-c1ccc(Cl)cc1Cl [Compound 281, 1-(2,4-dichlorophenyl)-5-methyl-N-((2,4,6-trifluorophenyl)sulfonyl)-1H-1,2,3-triazole-4-carboxamide] | 4 |
| CCc1c(C(=O)NS(=O)(=O)c2cc(C(F)(F)F)ccc2Cl)nnn1-c1ccc(OC(F)(F)F)cc1Cl [Compound 311, 1-(2-chloro-4-(trifluoromethoxy)phenyl)-N-((2-chloro-5-(trifluoromethyl)phenyl)sulfonyl)-5-ethyl-1H-1,2,3-triazole-4-carboxamide] | 4 |
| Cc1c(C(=O)NS(=O)(=O)c2cc(C(F)(F)F)ccc2Cl)nnn1-c1ccc(C#N)cc1Cl [Compound 315] | 4 |
| Cc1c(C(=O)NS(=O)(=O)c2cc(Cl)ccc2Cl)nnn1-c1ccc(C#N)cc1Cl [Compound 316, 1-(2-chloro-4-cyanophenyl)-N-((2,5-dichlorophenyl)sulfonyl)-5-methyl-1H-1,2,3-triazole-4-carboxamide] | 4 |
| Cc1ccc(C)c(S(=O)(=O)NC(=O)c2nnn(-c3ccc(C#N)cc3Cl)c2C)c1 [Compound 328] | 4 |
| O=C(NS(=O)(=O)c1ccccc1C(F)(F)F)c1nnn(-c2cc(Cl)ccc2Cl)c1C(F)(F)F [Compound 335, 1-(2,5-dichlorophenyl)-5-(trifluoromethyl)-N-((2-(trifluoromethyl)phenyl)sulfonyl)-1H-1,2,3-triazole-4-carboxamide] | 4 |
| CCc1c(C(=O)NS(=O)(=O)c2cc(OC)ccc2Cl)nnn1-c1ccc(OC(F)(F)F)cc1Cl [Compound 336, 1-(2-chloro-4-(trifluoromethoxy)phenyl)-N-((2-chloro-5-methoxyphenyl)sulfonyl)-5-ethyl-1H-1,2,3-triazole-4-carboxamide] | 4 |
| CCc1c(C(=O)NS(=O)(=O)c2cc(C)ccc2C)nnn1-c1ccc(OC(F)(F)F)cc1Cl [Compound 337, 1-(2-chloro-4-(trifluoromethoxy)phenyl)-N-((2,5-dimethylphenyl)sulfonyl)-5-ethyl-1H-1,2,3-triazole-4-carboxamide] | 4 |
| CCc1c(C(=O)NS(=O)(=O)c2ccccc2Cl)nnn1-c1ccc(OC(F)(F)F)cc1Cl [Compound 338, 1-(2-chloro-4-(trifluoromethoxy)phenyl)-N-((2-chlorophenyl)sulfonyl)-5-ethyl-1H-1,2,3-triazole-4-carboxamide] | 4 |
| CCc1c(C(=O)NS(=O)(=O)c2ccccc2F)nnn1-c1ccc(OC(F)(F)F)cc1Cl [Compound 339, 1-(2-chloro-4-(trifluoromethoxy)phenyl)-5-ethyl-N-((2-fluorophenyl)sulfonyl)-1H-1,2,3-triazole-4-carboxamide] | 4 |
| O=C(NS(=O)(=O)c1cc(C(F)(F)F)ccc1Cl)c1nnn(-c2ccc(F)cc2Cl)c1C(F)(F)F [Compound 364, 1-(2-chloro-4-fluorophenyl)-N-((2-chloro-5-(trifluoromethyl)phenyl)sulfonyl)-5-(trifluoromethyl)-1H-1,2,3-triazole-4-carboxamide] | 4 |
| O=C(NS(=O)(=O)c1ccccc1OC(F)(F)F)c1nnn(-c2cc(Cl)ccc2Cl)c1C(F)(F)F [Compound 370, 1-(2,5-dichlorophenyl)-N-((2-(trifluoromethoxy)phenyl)sulfonyl)-5-(trifluoromethyl)-1H-1,2,3-triazole-4-carboxamide] | 4 |
| O=C(NS(=O)(=O)c1cc(Cl)ccc1Cl)c1nnn(-c2cc(Cl)ccc2Cl)c1C(F)(F)F [Compound 371, 1-(2,5-dichlorophenyl)-N-((2,5-dichlorophenyl)sulfonyl)-5-(trifluoromethyl)-1H-1,2,3-triazole-4-carboxamide] | 4 |
| CCc1c(C(=O)NS(=O)(=O)c2ccccc2F)nnn1-c1ccc(F)cc1Cl [Compound 378, 1-(2-chloro-4-fluorophenyl)-5-ethyl-N-((2-fluorophenyl)sulfonyl)-1H-1,2,3-triazole-4-carboxamide] | 4 |
| Cc1ccc(C)c(S(=O)(=O)NC(=O)c2nnn(-c3ccc(C#N)cc3Cl)c2C(F)(F)F)c1 [Compound 389, 1-(2-chloro-4-cyanophenyl)-N-((2,5-dimethylphenyl)sulfonyl)-5-(trifluoromethyl)-1H-1,2,3-triazole-4-carboxamide] | 4 |
| N#Cc1ccc(-n2nnc(C(=O)NS(=O)(=O)c3cc(C(F)(F)F)ccc3C(F)(F)F)c2C(F)(F)F)c(Cl)c1 [Compound 390, N-((2,5-bis(trifluoromethyl)phenyl)sulfonyl)-1-(2-chloro-4-cyanophenyl)-5-(trifluoromethyl)-1H-1,2,3-triazole-4-carboxamide] | 4 |
| N#Cc1ccc(-n2nnc(C(=O)NS(=O)(=O)c3ccccc3C(F)(F)F)c2C(F)(F)F)c(Cl)c1 [Compound 394, 1-(2-chloro-4-cyanophenyl)-5-(trifluoromethyl)-N-((2-(trifluoromethyl)phenyl)sulfonyl)-1H-1,2,3-triazole-4-carboxamide] | 4 |
| N#Cc1ccc(-n2nnc(C(=O)NS(=O)(=O)c3ccccc3OC(F)(F)F)c2C(F)(F)F)c(Cl)c1 [Compound 395, 1-(2-chloro-4-cyanophenyl)-N-((2-(trifluoromethoxy)phenyl)sulfonyl)-5-(trifluoromethyl)-1H-1,2,3-triazole-4-carboxamide] | 4 |
| Cc1ccccc1S(=O)(=O)NC(=O)c1nnn(-c2ccc(C#N)cc2Cl)c1C(F)(F)F [Compound 396, 1-(2-chloro-4-cyanophenyl)-N-(o-tolylsulfonyl)-5-(trifluoromethyl)-1H-1,2,3-triazole-4-carboxamide] | 4 |
| Cc1c(C(=O)NS(=O)(=O)c2cc(Cl)ccc2Cl)nnn1-c1ccc(C#N)cc1F [Compound 410] | 4 |
| Cc1c(C(=O)NS(=O)(=O)c2ccc(F)cc2F)nnn1-c1ccc(C#N)cc1F [Compound 413] | 4 |
| Cc1c(C(=O)NS(=O)(=O)c2ccccc2F)nnn1-c1ccc(C#N)cc1F [Compound 415] | 4 |
| Cc1c(C(=O)NS(=O)(=O)c2cc(C(F)(F)F)ccc2C(F)(F)F)nnn1-c1c(Cl)cc(Cl)cc1Cl [Compound 430] | 4 |
| Cc1c(C(=O)NS(=O)(=O)c2cc(C(F)(F)F)ccc2Br)nnn1-c1ccc(Cl)cc1F [Compound 432] | 4 |
| Cc1ccc(C)c(S(=O)(=O)NC(=O)c2nnn(-c3ccc(Cl)cc3F)c2C)c1 [Compound 433] | 4 |
| Cc1c(C(=O)NS(=O)(=O)c2cc(C(F)(F)F)ccc2C(F)(F)F)nnn1-c1ccc(Cl)cc1F [Compound 441] | 4 |
| Cc1c(C(=O)NS(=O)(=O)c2ccccc2C(F)(F)F)nnn1-c1ccc(Cl)cc1F [Compound 443] | 4 |
| Cc1c(C(=O)NS(=O)(=O)c2ccccc2F)nnn1-c1ccc(Cl)cc1F [Compound 445] | 4 |
| Cc1c(C(=O)NS(=O)(=O)c2cc(C(F)(F)F)ccc2Cl)nnn1-c1ccc(Cl)cc1F [Compound 446] | 4 |
